Source: patent US7902225B2, “Mycobacterial inhibitors” (Janssen Pharmaceutica NV, priority 2005, dated 2011)

Tested on: M. Smegmatis ATCC607
Test: In-vitro anti-bacterial activity against strain M. smegmatis ATCC607 (growth inhibition, Alamar Blue fluorescence)
Assay type: cell-based
Settings: 48 hours at 37° C.; for IC50: Mycolicibacterium smegmatis, read-out: M. smegmatis (pIC50) (converted)
Procedure: D.2. In-vitro Method for Testing Compounds for Anti-bacterial Activity Against Strain M. Smegmatis ATCC607. Flat-bottom, sterile 96well plastic microtiter plates were filled with 180 μl of sterile deionized water, supplemented with 0.25% BSA. Subsequently, stock solutions (7.8× final test concentration) of compounds were added in 45 μl volumes to a series of duplicate wells in column 2 so as to allow evaluation of their effects on bacterial growth. Serial five-fold dilutions (45 μl in 180 μl) were made directly in the microtiter plates from column 2 to 11 using a customised robot system (Zymark Corp., Hopkinton, Mass.). Pipette tips were changed after every 3 dilutions to minimize pipetting errors with high hydrophobic compounds. Untreated control samples with (column 1) and without (column 12) inoculum were included in each microtiter plate. Approximately 250 CFU per well of bacteria inoculum, in a volume of 100 μl in 2.8× Mueller-Hinton broth medium, was added to the rows […]. The same volume of broth medium without inoculum was added to column 12 in row A to H. The cultures were incubated at 37° C. for 48 hours in a humidified 5% CO2 atmosphere (incubator with open air valve and continuous ventilation). At the end of incubation, two days after inoculation, the bacterial growth was quantitated fluorometrically. Therefore Alamar Blue (10×) was added to all wells in a volume of 20 μl and plates were incubated for another 2 hours at […] The fluorescence was read in a computer-controlled fluorometer (Cytofluor, Biosearch) at an excitation wavelength of 530 nm and an emission wavelength of 590 nm (gain 30). The % growth inhibition achieved by the compounds was calculated according to standard methods. The pIC50 was defined as the 50% inhibitory concentration for bacterial growth.

CC1CCN(c2nc3c(C(O)(CCN(C)C)c4ccccc4)cc(Br)cc3cc2Cc2ccccc2)CC1 (stereo not shown) [Compound 91]
M. smegmatis (pIC50): 5.3

CN(C)CCC(O)(c1cccs1)c1cc(Br)cc2cc(Cc3ccccc3)c(-n3ccnc3)nc12 (stereo not shown) [Compound 53]
IC50: 1260 nM

COc1nc2c(C(O)(CCN(C)C)c3ccco3)cc(Br)cc2cc1-c1ccccc1 (stereo not shown) [Compound 26]
IC50: 2000 nM

COc1cc(-c2ccccc2)c2cc(C(O)(CCN(C)C)c3ccccc3)ccc2n1 (stereo not shown) [Compound 27]
M. smegmatis (pIC50): 5.2

CN(C)CCC(O)(c1cccs1)c1cc(Br)cc2cc(Cc3ccccc3)c(N3CCN(C)CC3)nc12 (stereo not shown) [Compound 35]
IC50: 1580 nM

CN(C)CCC(O)(c1ccccc1)c1cc(Br)cc2cc(Cc3ccccc3)c(N3CCC(C(N)=O)CC3)nc12 (stereo not shown) [Compound 94]
IC50: 7940 nM

CN(C)CCC(O)(c1ccccc1)c1cc(Br)cc2cc(-c3ccccc3)c(-n3cncn3)nc12 (stereo not shown) [Compound 66]
IC50: 12600 nM

CN(C)CCC(O)(c1cccc2ccccc12)c1cc(Br)cc2cc(Cc3ccccc3)c(N3CCN(Cc4ccc5c(c4)OCO5)CC3)nc12 (stereo not shown) [Compound 45]
M. smegmatis (pIC50): 6.6

CN(C)CCC(O)(c1ccccc1)c1cc2nc(N3CCN(C)CC3)c(Cc3ccccc3)cc2cc1Br (stereo not shown) [Compound 61]
M. smegmatis (pIC50): 5.3

CN(C)CCC(O)(c1ccccc1)c1cc(Br)cc2cc(Cc3ccccc3)c(N3CC=CCC3)nc12 (stereo not shown) [Compound 81]
IC50: 1260 nM

COc1nc2c(C(O)(CCN(C)C)c3cc(F)cc(F)c3)cc(-c3cccnc3)cc2cc1-c1ccccc1 (stereo not shown) [Compound 13]
IC50: 398 nM

CN(C)CCC(O)(c1ccccc1)c1cc(Br)cc2cc(Cc3ccccc3)c(N(C)CCc3ccccc3)nc12 (stereo not shown) [Compound 83]
IC50: 1580 nM

COc1nc2cccc(C(O)(CCN(C)C)c3c(F)cccc3F)c2cc1-c1ccccc1 (stereo not shown) [Compound 28]
M. smegmatis (pIC50): 5.1

COc1nc2cccc(C(O)(CCN(C)C)c3cccc4ccccc34)c2cc1-c1ccccc1 (stereo not shown) [Compound 18]
IC50: 1580 nM

COc1nc2cccc(C(O)(CCN(C)C)c3ccccc3)c2cc1-c1ccccc1 (stereo not shown) [Compound 20]
IC50: 31600 nM

CN(C)CCC(O)(c1ccccc1)c1cc2nc(N3CCCC3)c(Cc3ccccc3)cc2cc1Br (stereo not shown) [Compound 58]
M. smegmatis (pIC50): 5.8

CN(C)CCC(O)(c1ccco1)c1cc(Br)cc2cc(-c3ccccc3)c(-n3ccnc3)nc12 (stereo not shown) [Compound 63]
IC50: 6310 nM

CN(C)CCC(O)(Cc1c(-c2ccccc2)c(-c2ccco2)nc2ccccc12)c1cc(F)cc(F)c1 (stereo not shown) [Compound 39]
IC50: 1260 nM

Cc1cc(-c2ccccc2)c2cc(C(O)(CCN(C)C)c3ccco3)ccc2n1 (stereo not shown) [Compound 6]
IC50: 31600 nM

CN(C)CCC(O)(c1ccc2nc(-c3cccnc3)cc(-c3ccccc3)c2c1)c1ccco1 (stereo not shown) [Compound 72]
IC50: 6310 nM

COc1nc2c(C(O)(CCN(C)C)c3cc(F)cc(F)c3)cc(Br)cc2cc1-c1ccccc1 (stereo not shown) [Compound 12]
IC50: 1580 nM

CN(C)CCC(O)(c1cc(F)cc(F)c1)c1ccc2nc(-c3cccnc3)cc(-c3ccccc3)c2c1 (stereo not shown) [Compound 8]
IC50: 1580 nM

CN(C)CCC(O)(c1cccc2ccccc12)c1cc(Br)cc2cc(Cc3ccccc3)c(N3CCN(C(=O)c4ccco4)CC3)nc12 (stereo not shown) [Compound 54]
IC50: 1260 nM

CN(C)CCC(O)(c1cccc2ccccc12)c1cc(Br)cc2cc(Cc3ccccc3)c(N3CCN(c4n[nH]c5ccccc45)CC3)nc12 (stereo not shown) [Compound 48]
IC50: 631 nM

CN(C)CCC(O)(c1ccccc1)c1cc(-c2cccnc2)cc2cc(-c3ccccc3)c(-c3cccnc3)nc12 (stereo not shown) [Compound 76]
IC50: 1580 nM

CC(=O)c1ccc(N2CCN(c3nc4c(C(O)(CCN(C)C)c5ccccc5)cc(Br)cc4cc3Cc3ccccc3)CC2)cc1 (stereo not shown) [Compound 82]
IC50: 1580 nM

CN(C)CCC(O)(c1cccs1)c1cc(Br)cc2cc(Cc3ccccc3)c(N(C)C)nc12 (stereo not shown) [Compound 73]
IC50: 1580 nM

CN(C)CCC(O)(c1cccc2ccccc12)c1cc(Br)cc2cc(Cc3ccccc3)c(N3CCN(C(c4ccccc4)c4ccccc4)CC3)nc12 (stereo not shown) [Compound 69]
IC50: 39800 nM

Cc1cc(-c2ccccc2)c2cc(C(O)(CCN(C)C)c3ccccc3)ccc2n1 (stereo not shown) [Compound 43]
IC50: 12600 nM

CN(C)CCC(O)(c1ccccc1)c1cccc2nc(N3CCN(C)CC3)c(-c3ccccc3)cc12 (stereo not shown) [Compound 37]
IC50: 79400 nM

CN(C)CCC(O)(c1ccccc1)c1cc2nc(N3CCN(Cc4ccccc4)CC3)c(Cc3ccccc3)cc2cc1Br (stereo not shown) [Compound 55]
IC50: 1260 nM

CN(C)CCC(O)(Cc1c(Cc2ccccc2)c(-c2ccccc2)nc2ccccc12)c1cc(F)cc(F)c1 (stereo not shown) [Compound 42]
IC50: 39800 nM

CN(C)CCC(O)(Cc1c(Cc2ccccc2)c(N2CCOCC2)nc2ccccc12)c1cc(F)cc(F)c1 (stereo not shown) [Compound 31]
IC50: 1260 nM

CN(C)CCC(O)(c1cc(F)cc(F)c1)c1cccc2nc(N(C)C)c(-c3ccccc3)cc12 (stereo not shown) [Compound 10]
IC50: 2000 nM

CN(C)CCC(O)(c1ccccc1)c1cc(Br)cc2cc(Cc3ccccc3)c(NCCCN3CCCC3=O)nc12 (stereo not shown) [Compound 92]
M. smegmatis (pIC50): 5.2

CN(C)CCC(O)(Cc1c(Cc2ccccc2)c(-c2ccsc2)nc2ccccc12)c1cc(F)cc(F)c1 (stereo not shown) [Compound 40]
IC50: 7940 nM

CN(C)CCC(O)(c1ccccc1)c1cc2nc(N(C)C)c(Cc3ccccc3)cc2cc1Br (stereo not shown) [Compound 67]
IC50: 20000 nM

CN(C)CCC(O)(c1ccccc1)c1cc(Br)cc2cc(Cc3ccccc3)c(-n3ccnc3)nc12 (stereo not shown) [Compound 59]
M. smegmatis (pIC50): 5.8

CN(C)CCC(O)(c1ccccc1)c1cc(Br)cc2cc(Cc3ccccc3)c(NCCC(c3ccccc3)c3ccccc3)nc12 (stereo not shown) [Compound 88]
IC50: 2510 nM

CN(C)CCC(O)(c1ccccc1)c1ccc2nc(-c3cccnc3)cc(-c3ccccc3)c2c1 (stereo not shown) [Compound 71]
IC50: 1580 nM

CN(C)CCC(O)(c1cccc2ccccc12)c1cc(Br)cc2cc(Cc3ccccc3)c(N3CCCC3)nc12 (stereo not shown) [Compound 52]
IC50: 1000 nM

CN(C)CCC(O)(c1ccccc1)c1cc(Br)cc2cc(Cc3ccccc3)c(-n3cncn3)nc12 (stereo not shown) [Compound 62]
M. smegmatis (pIC50): 5.3

CN(C)CCC(O)(c1cccc2ccccc12)c1cc(Br)cc2cc(Cc3ccccc3)c(N3CCOCC3)nc12 (stereo not shown) [Compound 51]
IC50: 1000 nM

CN(C)CCC(O)(c1cccc2ccccc12)c1cccc2nc(N3CCN(C)CC3)c(-c3ccccc3)cc12 (stereo not shown) [Compound 36]
IC50: 10000 nM

COc1nc2cccc(C(O)(CCN(C)C)c3ccco3)c2cc1-c1ccccc1 (stereo not shown) [Compound 21]
IC50: 31600 nM

CCCCNc1nc2c(C(O)(CCN(C)C)c3ccccc3)cc(Br)cc2cc1Cc1ccccc1 (stereo not shown) [Compound 93]
M. smegmatis (pIC50): 5.1

COc1nc2cccc(C(O)(CCN(C)C)c3cc(F)cc(F)c3)c2cc1-c1ccccc1 (stereo not shown) [Compound 1]
IC50: 1260 nM

COc1cc(-c2ccccc2)c2cc(C(O)(CCN(C)C)c3ccco3)ccc2n1 (stereo not shown) [Compound 29]
IC50: 31600 nM

CN(C)CCC(O)(c1ccccc1)c1cc(Br)cc2cc(Cc3ccccc3)c(N(C)C)nc12 (stereo not shown) [Compound 78]
IC50: 1580 nM

COc1nc2c(C(O)(CCN(C)C)c3cccs3)cc(Br)cc2cc1Cc1ccccc1 (stereo not shown) [Compound 15]
IC50: 7940 nM

CN(C)CCC(O)(c1cccc2ccccc12)c1cc(Br)cc2cc(Cc3ccccc3)c(N3CCN(Cc4ccccc4)CC3)nc12 (stereo not shown) [Compound 47]
IC50: 398 nM

CN(C)CCC(O)(c1cccc2ccccc12)c1cc(Br)cc2cc(Cc3ccccc3)c(N3CCC(Cc4ccccc4)CC3)nc12 (stereo not shown) [Compound 64]
M. smegmatis (pIC50): 5.2

CN(C)CCC(O)(c1ccccc1)c1cc(Br)cc2cc(Cc3ccccc3)c(NCCCN3CCOCC3)nc12 (stereo not shown) [Compound 87]
IC50: 2510 nM

CN(C)CCC(O)(c1cccc2ccccc12)c1cc(Br)cc2cc(Cc3ccccc3)c(-n3ccnc3)nc12 (stereo not shown) [Compound 46]
M. smegmatis (pIC50): 6.6

CN(C)CCC(O)(c1ccco1)c1cc(Br)cc2cc(-c3ccccc3)c(-n3cncn3)nc12 (stereo not shown) [Compound 68]
IC50: 31600 nM

CN(C)CCC(O)(Cc1c(-c2ccccc2)c(-c2ccccc2)nc2ccccc12)c1cc(F)cc(F)c1 (stereo not shown) [Compound 41]
IC50: 31600 nM

CN(C)CCC(O)(c1cccc2ccccc12)c1cc(Br)cc2cc(Cc3ccccc3)c(N3CCN(O)CC3)nc12 (stereo not shown) [Compound 49]
M. smegmatis (pIC50): 6.1

CN(C)CCC(O)(c1cccc2ccccc12)c1cc(Br)cc2cc(Cc3ccccc3)c(N3CCc4ccccc4C3)nc12 (stereo not shown) [Compound 50]
IC50: 794 nM

CN(C)CCC(O)(c1cccc2ccccc12)c1cc(Br)cc2cc(-c3ccccc3)c(-n3cncn3)nc12 (stereo not shown) [Compound 56]
M. smegmatis (pIC50): 5.8

COc1nc2ccc(C(O)(CCN(C)C)c3cc(F)cc(F)c3)cc2cc1Cc1ccc(C)cc1 (stereo not shown) [Compound 2]
IC50: 1260 nM

CN(C)CCC(O)(c1ccccc1)c1cc(Br)cc2cc(Cc3ccccc3)c(N3CCN(c4ccccn4)CC3)nc12 (stereo not shown) [Compound 85]
M. smegmatis (pIC50): 5.7

COc1nc2cccc(C(O)(CCN(C)C)c3ccc4ccccc4c3)c2cc1-c1ccccc1 (stereo not shown) [Compound 19]
IC50: 7940 nM

CN(C)CCC(O)(c1ccccc1)c1cc2nc(N3CCN(Cc4ccc5c(c4)OCO5)CC3)c(Cc3ccccc3)cc2cc1Br (stereo not shown) [Compound 60]
IC50: 2000 nM

COCCCNc1nc2c(C(O)(CCN(C)C)c3ccccc3)cc(Br)cc2cc1Cc1ccccc1 (stereo not shown) [Compound 90]
M. smegmatis (pIC50): 5.5
